Results published in patent US20240058481A1, “RADIOLABELLED COMPOUNDS FOR DIAGNOSING CHOLINERGIC NEURODEGENERATIVE DISEASES” (CENTRE NATIONAL DE LA RECHERCHE SCIENTIFIQUE, priority 2020, published 2024).

Key:
VAChT [1] = molecular target: T1, VAChT (Rattus norvegicus, UniProt Q62666); assay: Radioligand ([3H]vesamicol) binding on rat brain membrane preparation, affinity for VAChT; details: rat brain membranes, mean ± standard deviation of 3 independent experiments, Cheng & Prussoff
T1 construct: The entire brain was sampled and dissected in different regions: cortex, striatum, hippocampus, thalamus and cerebellum; from tissue; host or cells: brain regions of male Wistar rats (in vivo tracer injection, ex vivo counting)
T1 sequence (Q62666 1-530): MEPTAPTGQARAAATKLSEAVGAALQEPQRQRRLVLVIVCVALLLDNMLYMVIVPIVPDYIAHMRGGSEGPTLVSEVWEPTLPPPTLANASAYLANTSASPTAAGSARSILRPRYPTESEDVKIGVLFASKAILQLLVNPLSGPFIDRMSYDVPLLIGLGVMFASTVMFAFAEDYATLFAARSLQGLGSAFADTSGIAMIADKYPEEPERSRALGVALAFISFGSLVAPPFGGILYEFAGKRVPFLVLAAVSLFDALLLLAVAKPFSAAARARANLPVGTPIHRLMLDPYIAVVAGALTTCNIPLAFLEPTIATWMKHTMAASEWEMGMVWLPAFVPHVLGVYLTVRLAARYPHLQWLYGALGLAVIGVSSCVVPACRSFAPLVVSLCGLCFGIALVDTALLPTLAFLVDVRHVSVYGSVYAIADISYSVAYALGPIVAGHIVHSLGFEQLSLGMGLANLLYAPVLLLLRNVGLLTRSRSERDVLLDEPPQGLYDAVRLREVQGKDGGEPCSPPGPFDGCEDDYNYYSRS
Description: Measurement of the affinity of the different compounds for VAChT was obtained by radioligand binding method on rat brain membrane preparation, following the method described in Scheunemann et al. (Bioorg Med Chem 2004;12:1459-65). The L-(−)-vesamicol was supplied by Sigma Aldrich (Saint-Quentin-Fallavier, France) and [^3H]vesamicol (specific activity 1705.7 GBq/mmol) by Perkin-Elmer (Courtaboeuf, France). The IC50 values were determined graphically for each compound and Ki (inhibition constant) was calculated following the method of Cheng & Prussoff (Biochemical pharmacology 1973;22:3099-108). The results are expressed as a mean of Ki values±standard deviation from the mean after 3 independent experiments.

VAChT [2] = molecular target: T1, VAChT; assay: Biodistribution: cerebral accumulation of the tracers in the rat; type: in vivo; details: for Striatum/cerebellum accumulation ratio / Cerebral accumulation, cerebellum / Cerebral accumulation, striatum: 2 hours after i.v. injection of the tracer; for Cerebral accumulation, cerebellum / Cerebral accumulation, striatum: ± SEM, n=6/group
Description: Animals: The experiments were conducted in male rates of Wistar strain weighing 250-300 g (Breeding Centre R. Janvier, Le Genest St Isle, France). All procedures were carried out paying heed to European regulations on animal experimentation (2010/63/EU) with authorisation from the regional ethics committee on animal experiments: Comité Régional d'Ethique en Expérimentation Animale.
Biodistribution studies: The rats in the control group were given an i.v. injection of tracer (4-6 MBq in 0.3 mL) under isoflurane gas anaesthesia (n=6/group). In the VES group (n=6/group), injection of the tracer was preceded (5 min) by an i.v. injection of vesamicol (0.5 μmol/kg). The rats were sacrificed by decapitation 2 h after injection of the tracer. The entire brain was sampled and dissected in different regions: cortex, striatum, hippocampus, thalamus and cerebellum. Blood and bone fractions were also sampled. The biological samples were weighed, the radioactivity thereof was measured with a γ counter (2480 Gamma counter Wizard, Perkin Elmer), and the percentage of injected dose/g of tissue (% ID/g) was calculated.

| Structure (SMILES) | Ki (VAChT [1]) | Striatum/cerebellum accumulation ratio (VAChT [2]; rat) | Cerebral accumulation, cerebellum (VAChT [2]; rat) | Cerebral accumulation, striatum (VAChT [2]; rat) | further results |
| --- | --- | --- | --- | --- | --- |
| OC1Cc2cccc(F)c2CC1N1CCC(c2ccccc2)CC1 (racemic) [rac (+/−)-5-FBVM Trans, 5-Fluoro-3-(4-phenylpiperidin-1-yl)-1,2,3,4-tetrahydronaphthalen-2-ol] | 1.3 nM |  |  |  | In vivo stability (VAChT [2]; in vivo PET tracer in the rat): good; Passing through the blood-brain barrier (VAChT [2]; in vivo PET tracer in the rat): excellent |
| O[C@H]1Cc2cccc([18F])c2C[C@@H]1N1CCC(c2ccccc2)CC1 [(+)-(S,S)-5-[^18F]FBVM ^18F E2] |  | 1.52 | 0.215 ± 0.011 % ID/g | 0.327 ± 0.015 % ID/g |  |
| O[C@@H]1Cc2cccc(F)c2C[C@H]1N1CCC(c2ccccc2)CC1 [(−)-(R,R)-5-FBVM E1, (2R,3R)-5-Fluoro-3-(4-phenylpiperidin-1-yl)-1,2,3,4-tetrahydronaphthalen-2-ol] | 0.9 nM |  |  |  |  |
| O[C@@H]1Cc2cccc([18F])c2C[C@H]1N1CCC(c2ccccc2)CC1 [(−)-(R,R)-5-FBVM ^18F E1] |  | 5.84 | 0.232 ± 0.017 % ID/g | 1.356 ± 0.069 % ID/g | Reduction of accumulation in the striatum after (−)vesamicol pre-administration (VAChT [2]; rat, (−)vesamicol 0.5 μmole/kg, 5 minutes before injection of the tracer): 46% |

Second part, led by results:

| Ki (VAChT [1]) | Striatum/cerebellum accumulation ratio (VAChT [2]; rat) | Cerebral accumulation, cerebellum (VAChT [2]; rat) | Cerebral accumulation, striatum (VAChT [2]; rat) | Structure (SMILES) | further results |
| --- | --- | --- | --- | --- | --- |
| 61 ± 2.8 nM |  |  |  | OC1Cc2cccc(OCCF)c2CC1N1CCC(c2ccccc2)CC1 (single isomer, unassigned; (-)) [(−)-FEOBV, 5-fluoroethoxybenzovesamicol, reference compound] |  |
| 35 nM |  |  |  | O[C@H]1Cc2cccc(F)c2C[C@@H]1N1CCC(c2ccccc2)CC1 [(+)-(S,S)-5-FBVM. E2, (2S,3S)-5-Fluoro-3-(4-phenylpiperidin-1-yl)-1,2,3,4-tetrahydronaphthalen-2-ol] |  |
|  | 3.59 | 0.844 ± 0.025 % ID/g | 0.235 ± 0.011 % ID/g | OC1Cc2cccc(OCCF)c2CC1N1CCC(c2ccccc2)CC1 (stereo not shown) [[^18F]FEOBV, 5-fluoroethoxybenzovesamicol, reference compound] |  |
